Measurements: the supplement of paper PMC10307832

Key:
Test in all cases: relative viability (nuclei count vs DMSO), 5 days (fraction); higher = more cells survive
Elesclomol + Linsitinib = compound: CN(NC(=O)CC(=O)NN(C)C(=S)c1ccccc1)C(=S)c1ccccc1 [Elesclomol] + C[C@]1(O)C[C@@H](c2nc(-c3ccc4ccc(-c5ccccc5)nc4c3)c3c(N)nccn32)C1 [Linsitinib] (partner 1 µM)
Summary of the method: (§1)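 Dosing by pin tool came one day after lung cancer cell lines were seeded in 1536-well plates, using either one drug or a fixed anchor-drug dose plus five library-drug doses (not always all listed) in √10 steps. After 5 days, nuclei were counted on 4× images. Relative viability is treated-well nuclei count divided by vehicle-well nuclei count, and values are medians of duplicate plates.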

Elesclomol + Pemetrexed = compound: CN(NC(=O)CC(=O)NN(C)C(=S)c1ccccc1)C(=S)c1ccccc1 [Elesclomol] + Nc1nc2[nH]cc(CCc3ccc(C(=O)N[C@@H](CCC(=O)O)C(=O)O)cc3)c2c(=O)[nH]1 [Pemetrexed] (partner 0.2 µM)
Summary of the method: as §1

Elesclomol + Bortezomib = compound: CN(NC(=O)CC(=O)NN(C)C(=S)c1ccccc1)C(=S)c1ccccc1 [Elesclomol] + CC(C)C[C@H](NC(=O)[C@H](Cc1ccccc1)NC(=O)c1cnccn1)B(O)O [Bortezomib] (partner 0.002 µM)
Summary of the method: as §1

Elesclomol + Phenformin = compound: CN(NC(=O)CC(=O)NN(C)C(=S)c1ccccc1)C(=S)c1ccccc1 [Elesclomol] + N=C(N)NC(=N)NCCc1ccccc1 [Phenformin] (partner 250 µM)
Summary of the method: as §1

Elesclomol + Tozasertib = compound: CN(NC(=O)CC(=O)NN(C)C(=S)c1ccccc1)C(=S)c1ccccc1 [Elesclomol] + Cc1cc(Nc2cc(N3CCN(C)CC3)nc(Sc3ccc(NC(=O)C4CC4)cc3)n2)n[nH]1 [Tozasertib] (partner 0.1 µM)
Summary of the method: as §1

| Cell Line | relative viability (Elesclomol + Linsitinib; first compound 0.003162 µM) | relative viability (Elesclomol + Linsitinib; first compound 0.01 µM) | relative viability (Elesclomol + Linsitinib; first compound 0.03162 µM) | relative viability (Elesclomol + Linsitinib; first compound 0.1 µM) | relative viability (Elesclomol + Pemetrexed; first compound 0.003162 µM) | relative viability (Elesclomol + Pemetrexed; first compound 0.01 µM) | relative viability (Elesclomol + Pemetrexed; first compound 0.03162 µM) | relative viability (Elesclomol + Pemetrexed; first compound 0.1 µM) | relative viability (Elesclomol + Bortezomib; first compound 0.003162 µM) | relative viability (Elesclomol + Bortezomib; first compound 0.01 µM) | relative viability (Elesclomol + Bortezomib; first compound 0.03162 µM) | relative viability (Elesclomol + Bortezomib; first compound 0.1 µM) | relative viability (Elesclomol + Phenformin; first compound 0.003162 µM) | relative viability (Elesclomol + Phenformin; first compound 0.01 µM) | relative viability (Elesclomol + Phenformin; first compound 0.03162 µM) | relative viability (Elesclomol + Phenformin; first compound 0.1 µM) | relative viability (Elesclomol + Tozasertib; first compound 0.003162 µM) | relative viability (Elesclomol + Tozasertib; first compound 0.01 µM) | relative viability (Elesclomol + Tozasertib; first compound 0.03162 µM) | relative viability (Elesclomol + Tozasertib; first compound 0.1 µM) |
| --- | --- | --- | --- | --- | --- | --- | --- | --- | --- | --- | --- | --- | --- | --- | --- | --- | --- | --- | --- | --- |
| SW 1573 | 0.706 | 0.224 | 0.116 | 0.102 | 0.464 | 0.158 | 0.115 | 0.0205 | 1.02 | 0.174 | 0.105 | 0.103 | 0.274 | 0.114 | 0.159 | 0.0405 | 0.133 | 0.119 | 0.0792 | 0.0199 |
| HCC-15 | 0.882 | 0.735 | 0.61 | 0.38 | 0.237 | 0.23 | 0.24 | 0.187 | 0.998 | 0.905 | 0.662 | 0.42 | 0.452 | 0.438 | 0.335 | 0.231 | 0.358 | 0.292 | 0.204 | 0.159 |
| NCI-H2126 | 0.665 | 0.699 | 0.731 | 0.65 | 0.766 | 0.59 | 0.686 | 0.542 | 1.11 | 1.08 | 1.11 | 1.17 | 0.562 | 0.526 | 0.538 | 0.46 | 0.792 | 0.751 | 0.359 | 0.337 |
| NCI-H2085 | 0.786 | 0.596 | 0.432 | 0.247 | 0.911 | 0.902 | 0.64 | 0.168 | 0.938 | 0.662 | 0.577 | 0.349 | 0.676 | 0.588 | 0.512 | 0.305 | 0.76 | 0.703 | 0.529 | 0.457 |
| BEN | 0.763 | 0.403 | 0.322 | 0.239 | 0.888 | 0.68 | 0.408 | 0.319 | 0.698 | 0.57 | 0.265 | 0.25 | 0.264 | 0.233 | 0.259 | 0.246 | 0.592 | 0.399 | 0.45 | 0.402 |
